{"source": "patent US20010046504A1", "about": "“CYCLOPHOSPHAMIDE FILM-COATED TABLETS” (priority 1998, published 2001)", "type": "physicochemical", "protocol": "Investigations on the Compatibility of Cyclophosphamide with Various Tableting Auxiliaries […] The pressed tablets were stored at 31° C. for 6 months. The decomposition of the active compound was carried out [sic] by means of chloride determination.", "data": [{"substance": "Preswollen starch [Auxiliary 9]", "values": [{"measurement": "Stability of cyclophosphamide in the presence of auxiliary (in words)", "value": "somewhat indifferent"}]}]}
